Source: patent US12162890B2 (Novartis AG, priority 2015, dated 2024)

Target: HEK293 cells with stable expression of the GRIN1 gene and tetracycline-inducible expression of the GRIN2B gene (NMDA receptor, NR2B) (Homo sapiens, UniProt Q13224)
Experiment: Fluo-8 Ca2+ flux assay: reversal of Ro 25-6981-mediated suppression of the Ca2+ response to co-agonist (glutamate/glycine); note: test concentration or dose not given here
Assay type: cell-based
Conditions: reversal of the Ro 25-6981 suppression of the Ca2+ response to co-agonist (glutamate/glycine)

Sequence of HEK293 cells with stable expression of the GRIN1 gene and tetracycline-inducible expression of the GRIN2B gene (NMDA receptor, NR2B) (Q13224 27-1484, other chains not shown): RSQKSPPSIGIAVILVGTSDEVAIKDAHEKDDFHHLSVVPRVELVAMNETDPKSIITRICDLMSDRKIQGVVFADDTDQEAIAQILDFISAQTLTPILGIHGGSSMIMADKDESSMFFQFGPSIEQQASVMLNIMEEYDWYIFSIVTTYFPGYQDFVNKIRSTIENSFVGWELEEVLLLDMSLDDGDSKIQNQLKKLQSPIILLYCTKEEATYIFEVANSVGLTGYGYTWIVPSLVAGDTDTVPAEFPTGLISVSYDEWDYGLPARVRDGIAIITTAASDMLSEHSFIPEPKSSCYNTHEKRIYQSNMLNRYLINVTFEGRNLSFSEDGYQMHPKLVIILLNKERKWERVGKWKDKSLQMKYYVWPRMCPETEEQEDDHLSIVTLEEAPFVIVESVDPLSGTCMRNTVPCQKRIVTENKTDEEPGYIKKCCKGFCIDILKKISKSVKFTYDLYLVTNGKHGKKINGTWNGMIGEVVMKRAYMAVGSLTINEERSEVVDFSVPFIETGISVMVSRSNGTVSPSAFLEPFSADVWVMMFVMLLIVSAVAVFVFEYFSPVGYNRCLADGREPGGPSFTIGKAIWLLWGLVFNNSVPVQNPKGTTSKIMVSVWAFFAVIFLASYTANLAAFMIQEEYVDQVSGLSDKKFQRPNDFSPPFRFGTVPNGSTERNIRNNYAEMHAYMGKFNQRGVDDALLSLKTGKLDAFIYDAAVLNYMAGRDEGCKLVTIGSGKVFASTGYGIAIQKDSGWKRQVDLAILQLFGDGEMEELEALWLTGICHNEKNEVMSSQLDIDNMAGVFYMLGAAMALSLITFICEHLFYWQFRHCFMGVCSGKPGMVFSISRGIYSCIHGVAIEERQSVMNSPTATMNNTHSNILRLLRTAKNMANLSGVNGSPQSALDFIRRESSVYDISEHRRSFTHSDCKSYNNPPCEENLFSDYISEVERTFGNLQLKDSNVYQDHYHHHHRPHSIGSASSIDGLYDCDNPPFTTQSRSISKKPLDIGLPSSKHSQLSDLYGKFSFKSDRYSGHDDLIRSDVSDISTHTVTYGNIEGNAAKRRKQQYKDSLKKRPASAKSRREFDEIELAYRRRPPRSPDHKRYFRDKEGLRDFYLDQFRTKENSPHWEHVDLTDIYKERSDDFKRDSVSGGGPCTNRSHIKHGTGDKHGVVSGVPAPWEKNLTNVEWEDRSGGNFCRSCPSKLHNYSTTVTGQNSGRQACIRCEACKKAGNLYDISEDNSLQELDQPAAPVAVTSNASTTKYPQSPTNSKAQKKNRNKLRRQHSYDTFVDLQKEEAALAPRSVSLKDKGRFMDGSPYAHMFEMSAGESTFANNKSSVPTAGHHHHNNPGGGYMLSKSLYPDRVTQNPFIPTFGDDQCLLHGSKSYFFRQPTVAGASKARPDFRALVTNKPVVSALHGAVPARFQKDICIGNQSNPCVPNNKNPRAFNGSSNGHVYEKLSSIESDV

Structure (SMILES) | Response Recovered (%)
O=C(Cn1ccc2scc(-c3ccc(F)c(C(F)(F)F)c3)c2c1=O)N1CC(F)C1 [Example 32, 3-(4-fluoro-3-(trifluoromethyl)phen-yl)-5-(2-(3-fluoroazetidin-1-yl)-2-oxoethyl)thieno[3,2-c]pyridin-4(5H)-one] | 60
O=C(Cn1cnc2[nH]cc(-c3cnc(Cl)c(Cl)c3)c2c1=O)N1CCC(F)C1 (centres unmarked) [Example 180, 5-(5,6-dichloropyridin-3-yl)-3-(2-(3-fluoropyrrolidin-1-yl)-2-oxoethyl)-3H-pyrrolo[2,3-d]pyrimidin-4(7H)-one] | 15
O=C(Cn1ccc2scc(-c3ccc(Cl)c(Cl)c3)c2c1=O)N1CC2C(C1)C2(F)F (centres unmarked) [Example 66, 3-(3,4-dichlorophenyl)-5-(2-(6,6-difluoro-3-azabicyclo[3.1.0]hex-an-3-yl)-2-oxoethyl)thieno[3,2-c]pyridin-4(5H)-one] | 26
O=C(Cn1cnc2[nH]cc(-c3ccc(Cl)c(F)c3)c2c1=O)N1CCC(F)C1 (centres unmarked) [Example 179, 5-(4-Chloro-3-fluoro-phenyl)-3-[2-(3-fluoro-pyrrolidin-1-yl)-2-oxo-ethyl]-3,7-dihydro-pyrrolo[2,3-d]pyrimidin-4-one] | 37
O=C(Cn1ccc2scc(-c3ccc(F)c(Cl)c3)c2c1=O)N1CCC(F)C1 (centres unmarked) [Example 9, 3-(3-Chloro-4-fluoro-phenyl)-5-[2-(3-fluoro-pyrrolidin-1-yl)-2-oxo-ethyl]-5H-thieno[3,2-c]pyridin-4-one] | 81
O=C(Cn1ccc2scc(-c3ccc(F)c(C(F)(F)F)c3)c2c1=O)N1CC2(COC2)C1 [Example 69, 3-(4-fluoro-3-(trifluoromethyl)phen-yl)-5-(2-oxo-2-(2-oxa-6-azaspiro[3.3]heptan-6-yl)ethyl)thieno[3,2-c]pyridin-4(5H)-one] | 16
O=C(Cn1ccc2ncc(-c3ccc(F)c(C(F)(F)F)c3)n2c1=O)N1CCC(F)C1 (centres unmarked) [Example 448, 3-(4-fluoro-3-(trifluoromethyl)phenyl)-6-(2-(3-fluoropyrrolidin-1-yl)-2-oxoethyl)imidazo[1,2-c]pyrimidin-5(6H)-one] | 14
CCC1(F)CN(C(=O)Cn2ccc3scc(-c4cnc(Cl)c(Cl)c4)c3c2=O)C1 [Example 75, 3-(5,6-dichloropyridin-3-yl)-5-(2-(3-ethyl-3-fluoroazetidin-1-yl)-2-oxoethyl)thieno[3,2-c]pyridin-4(5H)-one] | 78
Cn1cc(-c2ccc(Cl)c(F)c2)c2c(=O)n(CC(=O)N3CC(F)(F)C3)cnc21 [Example 170, 5-(4-chloro-3-fluorophenyl)-3-(2-(3,3-difluoroazetidin-1-yl)-2-oxoethyl)-7-methyl-3H-pyrrolo[2,3-d]pyrimidin-4(7H)-one] | 18
O=C(Cn1cnc2c(c(-c3ccc(Cl)c(C(F)(F)F)c3)cn2CCO)c1=O)N1CCCC1 [Example 194, 5-(4-chloro-3-(trifluoromethyl)phenyl)-7-(2-hydroxyethyl)-3-(2-oxo-2-(pyrrolidin-1-yl)ethyl)-3H-pyrrolo[2,3-d]pyrimidin-4(7H)-one] | 2
O=C(Cn1ccc2scc(-c3ccc(Cl)c(C(F)(F)F)c3)c2c1=O)N1C[C@@H](F)[C@@H](F)C1 [Example 14, 3-(4-chloro-3-(trifluoromethyl)phenyl)-5-(2-((3S,4R)-3,4-difluoropyrrolidin-1-yl)-2-oxoethyl)thieno[3,2-c]pyridin-4(5H)-one] | 99

The next lines start with the values.

Response Recovered (%) | Structure (SMILES)
4 | O=C(Cn1cnc2onc(-c3ccc(Cl)cc3)c2c1=O)N1CCC(F)C1 (centres unmarked) [Example 386, 3-(4-chlorophenyl)-5-(2-(3-fluoropyrrolidin-1-yl)-2-oxoethyl)isoxazolo[5,4-d]pyrimidin-4(5H)-one]
7 | O=C(Cn1cnc2csc(-c3ccc(Cl)cc3)c2c1=O)N1CCC(O)C1 (centres unmarked) [Example 352, 5-(4-chlorophenyl)-3-(2-(3-hydroxypyrrolidin-1-yl)-2-oxoethyl)thieno[3,4-d]pyrimidin-4(3H)-one]
92 | Cc1cn(CC(=O)N2CC(F)(CF)C2)c(=O)c2c(-c3cnc(Cl)c(Cl)c3)ccn12 [Example 421, 8-(5,6-dichloropyridin-3-yl)-2-(2-(3-fluoro-3-(fluoromethyl)azetidin-1-yl)-2-oxoethyl)-4-methylpyrrolo[1,2-a]pyrazin-1(2H)-one]
68 | O=C(Cn1ccc2c(c(-c3ccc(F)c(C(F)(F)F)c3)cn2CO)c1=O)N1CCC(F)C1 (centres unmarked) [Example 260, 3-(4-fluoro-3-(trifluoromethyl)phenyl)-5-(2-(3-fluoropyrrolidin-1-yl)-2-oxoethyl)-1-(hydroxymethyl)-1H-pyrrolo[3,2-c]pyridin-4(5H)-one]
140 | Cn1cc(-n2cc(-c3ccc(F)c(Cl)c3)c3c(=O)n(CC(=O)N4CC(C)(F)C4)ccc32)nn1 [Example 271, 3-(3-chloro-4-fluorophenyl)-5-(2-(3-fluoro-3-methylazetidin-1-yl)-2-oxoethyl)-1-(1-methyl-1H-1,2,3-triazol-4-yl)-1H-pyrrolo[3,2-c]pyridin-4(5H)-one]
89 | O=C(Cn1ccc2[nH]cc(-c3ccc(F)c(C(F)(F)F)c3)c2c1=O)N1CCC(F)C1 (centres unmarked) [Example 215, 3-(4-fluoro-3-(trifluoromethyl)phenyl)-5-(2-(3-fluoropyrrolidin-1-yl)-2-oxoethyl)-1H-pyrrolo[3,2-c]pyridin-4(5H)-one]
29 | O=C(Cn1ccc2c(c(-c3ccc(F)c(Cl)c3)cn2C2COC2)c1=O)N1CCC(F)C1 (centres unmarked) [Example 261, 3-(3-chloro-4-fluorophenyl)-5-(2-(3-fluoropyrrolidin-1-yl)-2-oxoethyl)-1-(oxetan-3-yl)-1H-pyrrolo[3,2-c]pyridin-4(5H)-one]
109 | O=C(Cn1ccc2[nH]cc(-c3ccc(Cl)c(F)c3)c2c1=O)N1CC(F)(F)C1 [Example 213, 3-(4-chloro-3-fluorophenyl)-5-(2-(3,3-difluoroazetidin-1-yl)-2-oxoethyl)-1H-pyrrolo[3,2-c]pyridin-4(5H)-one]
4 | O=C(Cn1cnc2onc(-c3ccc(Cl)cc3)c2c1=O)N1CC(F)(F)C1 [Example 385, 3-(4-chlorophenyl)-5-(2-(3,3-difluoroazetidin-1-yl)-2-oxoethyl)isoxazolo[5,4-d]pyrimidin-4(5H)-one]
66 | O=C(Cn1ccc2c(c(-c3ccc(F)c(Cl)c3)cn2CCF)c1=O)N1CCC(F)C1 (centres unmarked) [Example 253, 3-(3-chloro-4-fluorophenyl)-1-(2-fluoroethyl)-5-(2-(3-fluorpyrrolidin-1-yl)-2-oxoethyl)-1H-pyrrolo[3,2-c]pyridin-4(5H)-one]
0 | O=C(Cn1cnc2ccn(-c3ccc(Cl)cc3)c2c1=O)NC1CC1 [Example 375, 2-(5-(4-chlorophenyl)-4-oxo-4,5-dihydro-3H-pyrrolo[3,2-d]pyrimidin-3-yl)-N-cyclopropylacetamide]
110 | Cc1cn(CC(=O)N2CC(C)(F)C2)c(=O)c2c(-c3ccc(Cl)c(Cl)c3)ccn12 [Example 419, 8-(3,4-dichlorophenyl)-2-(2-(3-fluoro-3-methylazetidin-1-yl)-2-oxoethyl)-4-methylpyrrolo[1,2-a]pyrazin-1(2H)-one]
